Test results as given in ChEMBL document CHEMBL1153213, “Inhibition of CTP synthase from Escherichia coli by xanthines and uric acids” (Bioorg Med Chem Lett, 2010).
Calls of active or inactive are those of the source. No cut-off for these calls is given here.

Columns and labels:
[1] = Inhibition of Escherichia coli recombinant N-terminal hexahistidine-tagged CTP synthetase expressed in Escherichia coli BL21 (DE3) assessed as inhibition of CTP formation by continuous spectrophotometric assay in presence of 150 mM NH4Cl
[2] = Inhibition of Escherichia coli recombinant N-terminal hexahistidine-tagged CTP synthetase expressed in Escherichia coli BL21 (DE3) assessed as inhibition of CTP formation by continuous spectrophotometric assay in presence of 10 mM L-glutamine and 0.15 mM GTP
Escherichia coli [3] = experiment: Inhibition of Escherichia coli recombinant N-terminal hexahistidine-tagged CTP synthetase expressed in Escherichia coli BL21 (DE3) assessed as inhibition of CTP formation at 1 mM in presence of 1mM ATP
Escherichia coli [4] = experiment: Inhibition of Escherichia coli recombinant N-terminal hexahistidine-tagged CTP synthetase expressed in Escherichia coli BL21 (DE3) assessed as inhibition of CTP formation at 1 mM in presence of 1mM UTP
[5] = Inhibition of Escherichia coli recombinant N-terminal hexahistidine-tagged CTP synthetase expressed in Escherichia coli BL21 (DE3) assessed as inhibition of CTP formation in Hepes buffer at pH 8 by continuous spectrophotometric assay in presence of 150 mM NH4Cl
[6] = Inhibition of Escherichia coli recombinant N-terminal hexahistidine-tagged CTP synthetase expressed in Escherichia coli BL21 (DE3) assessed as inhibition of CTP formation in TAPS buffer at pH 8.5 by continuous spectrophotometric assay in presence of 150 mM NH4Cl
[7] = Inhibition of Escherichia coli recombinant N-terminal hexahistidine-tagged CTP synthetase expressed in Escherichia coli BL21 (DE3) assessed as inhibition of CTP formation in Hepes buffer at pH 8 by continuous spectrophotometric assay in presence of 10 mM L-glutamine and 0.15 mM GTP
[8] = Inhibition of Escherichia coli recombinant N-terminal hexahistidine-tagged CTP synthetase expressed in Escherichia coli BL21 (DE3) assessed as inhibition of CTP formation in TAPS buffer at pH 8.5 by continuous spectrophotometric assay in presence of 10 mM L-glutamine and 0.15 mM GTP
[9] = Multisite inhibition of Escherichia coli recombinant N-terminal hexahistidine-tagged CTP synthetase expressed in Escherichia coli BL21 (DE3) assessed as inhibition of CTP formation in Hepes buffer at pH 8 in presence of 8.16 mM NH4Cl
[10] = Multisite inhibition of Escherichia coli recombinant N-terminal hexahistidine-tagged CTP synthetase expressed in Escherichia coli BL21 (DE3) assessed as inhibition of CTP formation in Hepes buffer at pH 8 in presence of 5.44 mM NH4Cl
[11] = Multisite inhibition of Escherichia coli recombinant N-terminal hexahistidine-tagged CTP synthetase expressed in Escherichia coli BL21 (DE3) assessed as inhibition of CTP formation in Hepes buffer at pH 8 in presence of 2.72 mM NH4Cl
[12] = Multisite inhibition of Escherichia coli recombinant N-terminal hexahistidine-tagged CTP synthetase expressed in Escherichia coli BL21 (DE3) assessed as inhibition of CTP formation in Hepes buffer at pH 8 in presence of 1.36 mM NH4Cl
[13] = Multisite inhibition of Escherichia coli recombinant N-terminal hexahistidine-tagged CTP synthetase expressed in Escherichia coli BL21 (DE3) assessed as inhibition of CTP formation in Hepes buffer at pH 8 in presence of 0.54 mM NH4Cl

Cn1c(=O)c2c(n(C)c1=O)n(C)c(=O)n2C
IC50 ([1]; read-out: IC50): 121 µM | IC50 ([2]; read-out: IC50): 79 µM

Cn1c(=O)c2c([nH]c(=O)n2C)n(C)c1=O
IC50 ([1]; read-out: IC50): 70 µM | IC50 ([2]; read-out: IC50): 67 µM

Cn1c(=O)[nH]c(=O)c2c1[nH]c(=O)n2C
IC50 ([1]; read-out: IC50): 90 µM | IC50 ([2]; read-out: IC50): 63 µM | inhibition (Escherichia coli [3]): inactive | inhibition (Escherichia coli [4]): inactive

O=C(O)Cc1cc(=O)[nH]c(=O)[nH]1
IC50 ([1]; read-out: IC50): 3170 µM | IC50 ([2]; read-out: IC50): 2600 µM

Cn1c(=O)[nH]c2[nH]c(=O)[nH]c2c1=O
IC50 ([1]; read-out: IC50): 96 µM | IC50 ([2]; read-out: IC50): 101 µM

Cn1c(=O)[nH]c2[nH]c(=O)n(C)c2c1=O
IC50 [5]: 119 µM | IC50 [6]: 109 µM | IC50 [7]: 113 µM | IC50 [8]: 61 µM

Cn1c(=O)c2[nH]c(=O)[nH]c2n(C)c1=O
IC50 [5]: 72 µM | IC50 [6]: 99 µM | IC50 [7]: 88 µM | IC50 [8]: 64 µM

Nc1[nH]cnc2ncnc1-2 [ADENINE]
IC50 ([1]; read-out: IC50): 12900 µM | IC50 ([2]; read-out: IC50): 15800 µM

Nc1ncnc2c1ncn2[C@@H]1O[C@H](CO)[C@@H](O)[C@H]1O [ADENOSINE]
IC50 ([1]; read-out: IC50): 11000 µM

NC(=O)NC1NC(=O)NC1=O (stereo unspecified) [ALLANTOIN]
IC50 [1]: Not Active | IC50 [2]: Not Active

Cn1c(=O)c2c(ncn2C)n(C)c1=O [CAFFEINE]
IC50 ([1]; read-out: IC50): 510 µM | IC50 ([2]; read-out: IC50): 390 µM | IC50 [9]: 440 µM | IC50 [10]: 450 µM | IC50 [11]: 420 µM | IC50 [12]: 450 µM | IC50 [13]: 440 µM | inhibition (Escherichia coli [3]): inactive | inhibition (Escherichia coli [4]): inactive

Cn1c(=O)[nH]c2ncn(C)c2c1=O [PARAXANTHINE]
IC50 [5]: 480 µM | IC50 [6]: 360 µM | IC50 [7]: 440 µM | IC50 [8]: 200 µM

Cn1cnc2c1c(=O)[nH]c(=O)n2C [THEOBROMINE]
IC50 ([1]; read-out: IC50): 580 µM | IC50 ([2]; read-out: IC50): 420 µM

Cn1c(=O)c2nc[nH]c2n(C)c1=O [THEOPHYLLINE]
IC50 [5]: 550 µM | IC50 [6]: 400 µM | IC50 [7]: 430 µM | IC50 [8]: 300 µM

O=c1cc[nH]c(=O)[nH]1 [URACIL]
IC50 ([1]; read-out: IC50): 4700 µM | IC50 ([2]; read-out: IC50): 4200 µM

Oc1nc(O)c2nc(O)[nH]c2n1 [URIC ACID]
IC50 [5]: 87 µM | IC50 [6]: 113 µM | IC50 [7]: 60 µM | IC50 [8]: 60 µM

O=c1ccn([C@@H]2O[C@H](CO)[C@@H](O)[C@H]2O)c(=O)[nH]1 [URIDINE]
IC50 ([1]; read-out: IC50): 4600 µM | IC50 ([2]; read-out: IC50): 3100 µM

O=c1[nH]c(=O)c2nc[nH]c2[nH]1 [XANTHINE]
IC50 [5]: 370 µM | IC50 [6]: 220 µM | IC50 [7]: 230 µM | IC50 [8]: 160 µM
